Measurements published in publication PMC8086144, “A novel peptide antagonist of the human growth hormone receptor” (The Journal of Biological Chemistry, 2021).

Experiments:
[1] = molecular target: T1, hGHR (Homo sapiens, UniProt P10912); assay: hGH-mediated pSTAT5 in SK-MEL-28 cells, ELISA; format: cell-based; conditions: ELISA (pSTAT5A Y694/pSTAT5B Y699), SK-MEL-28 cells co-treated with hGH and 200 nM peptide, Equation 2, triplicate; for inhibition at 0.2 µM: SK-MEL-28, 20 min; for % pSTAT5 inhibition: 20 min
T1 construct: previously reported to express high levels of endogenous hGHR; host or cells: SK-MEL-28, MALME-3M, IM9
T1 sequence (P10912 19-638): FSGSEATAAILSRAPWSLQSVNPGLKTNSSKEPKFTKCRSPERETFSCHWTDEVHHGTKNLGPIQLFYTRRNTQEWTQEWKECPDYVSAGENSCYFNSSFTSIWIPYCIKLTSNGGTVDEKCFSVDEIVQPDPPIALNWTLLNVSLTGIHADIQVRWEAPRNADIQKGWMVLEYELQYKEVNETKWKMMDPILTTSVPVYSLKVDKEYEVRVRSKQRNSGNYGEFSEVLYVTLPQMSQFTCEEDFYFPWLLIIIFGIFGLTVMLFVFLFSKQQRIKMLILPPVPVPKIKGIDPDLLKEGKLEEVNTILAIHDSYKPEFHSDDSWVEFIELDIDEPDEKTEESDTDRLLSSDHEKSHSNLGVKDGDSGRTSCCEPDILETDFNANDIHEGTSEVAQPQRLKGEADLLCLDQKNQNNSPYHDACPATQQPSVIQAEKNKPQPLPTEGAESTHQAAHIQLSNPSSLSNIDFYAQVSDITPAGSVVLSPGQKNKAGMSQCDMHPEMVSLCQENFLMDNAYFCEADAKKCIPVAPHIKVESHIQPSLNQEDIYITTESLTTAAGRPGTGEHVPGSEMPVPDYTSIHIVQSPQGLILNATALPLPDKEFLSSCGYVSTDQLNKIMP
Procedure: SK-MEL-28, MALME-3M, and T84 cells were grown and maintained in Eagle's Minimal Essential Medium. IM9 and L cells were grown in RPMI-1640 media and Dulbecco's modified Eagle's medium, respectively. All growth media was supplemented with 10% fetal bovine serum and 1× antibiotic-antimycotic […] solution. Cells were grown at 37 °C under a 5% CO2 atmosphere in a humidified incubator, and growth media was replaced every 48 h during incubation. No hGH was present in or added to the growth media unless specifically indicated. Between 12 to 16 h after seeding, adherent cells (SK-MEL-28, MALME-3M, T84, L cells) were switched to serum-free growth media (no GH) and starved for 4 h before the addition of hGH, bGH (L cells), hPRL (MALME-3M and T84 cells), or buffer at the concentrations noted. Cells were then allowed to incubate for an additional 20 min before being harvested. For suspended cell treatments, IM9 cells were pelleted by centrifugation at 140g for 5 min at room temperature. The supernatant was then removed by aspiration, and the cells were resuspended in serum-free media. The cells were then starved for 4 h at 37 °C under a 5% CO2 atmosphere in a humidified incubator and subsequently treated with hGH, S1H, or both at the indicated concentrations for 20 min before harvesting by centrifugation.
Following treatment, the cells were harvested at the indicated time points, and the total protein was extracted. To affect protein extraction, the treatment media was removed by aspiration, and the cells were washed twice with ice-cold PBS. Following washing, total protein was extracted from the cells using RIPA buffer (100 μl/million cells) supplemented with 1.5× Halt protease and phosphatase inhibitor cocktail. Briefly, chilled RIPA buffer was added to the cells, and the lysis reaction was allowed to incubate for 5 min at 4 °C. Adherent cells were harvested for lysis using a sterile cell scraper. The resultant cell suspensions were sonicated on ice for 60 s with ON (2-s)/OFF (1-s) pulses at 2% power. The cell lysate was then cleared by centrifugation at 8000g for 10 min at 4 °C. Following centrifugation, the supernatant was collected and stored at −80 °C until further use. Sample protein concentration was quantified using a Bradford assay with bovine serum albumin as the protein standard. Absorbance at 595 nm was measured using a Spectramax 250 multimode plate reader (Molecular Devices) and processed using SoftmaxPro v4.7.1 software.
Intracellular pSTAT5A (Y694) and pSTAT5B (Y699) levels were quantified from clarified protein samples using an InstantOne ELISA kit (Thermo Fisher) according to the manufacturer’s instructions. Briefly, 50 μl of protein sample (1 mg/ml) were added to wells containing 50 μl antibody cocktail in a 96-well plate and incubated at room temperature for 2 h with shaking (300 rpm). Following incubation, the wells were washed, and the bound antibodies were detected by adding detection regent and incubating the plate for 1 h at room temperature with shaking (300 rpm). Following incubation, stop reagent was added, and the absorbance was read at 450 nm using a UV-VIS spectrophotometer (Molecular Devices, model M2). All experiments were performed in triplicate. Percent pSTAT5 inhibition was calculated from background-subtracted pSTAT5 levels using Equation 2:(2) %inhibition=100×(pSTAT5hGH−pSTAT5PI)/pSTAT5hGH where pSTAT5hGH is the fold-induction of pSTAT5 upon treatment with hGH alone and pSTAT5PI is the fold-induction of pSTAT5 upon co-treatment with hGH and peptide inhibitor.

[2] = Wavelength-dependent CD spectropolarimetry (helical propensity); format: physicochemical; conditions: 25 °C; for % α-helix + TFE / % α-helix - TFE: calculated from MRE at 222 nm (Equation 1); for % α-helix + TFE / [θ]222 + TFE (mean residue ellipticity at 222 nm): 20 μM peptide in PBS with 30% (v/v) TFE; for % α-helix - TFE / [θ]222 - TFE (mean residue ellipticity at 222 nm): 20 μM peptide in PBS, no TFE; for [θ]222 + TFE (mean residue ellipticity at 222 nm) / [θ]222 - TFE (mean residue ellipticity at 222 nm): far-UV CD, background-subtracted average of four scans, in deg·cm2/dmol (unit assumed)
Procedure: The solution-phase structure of each peptide was evaluated by wavelength-dependent CD spectropolarimetry. For analysis, stock peptides were diluted to a final concentration of 20 μM in PBS supplemented with or without 30% (v/v) TFE. All peptide solutions were allowed to equilibrate for 10 min at 25 °C before analysis. Far-UV wavelength scans were performed on a Jasco J-715 CD spectropolarimeter from 255 nm to 195 nm at 25 °C. Final spectra were generated from a background subtracted (buffer only) average of four scans. Data were processed using J-700 Software v1.5 (Jasco) and KaleidaGraph v4.5. Percent helicity was calculated from the mean residue ellipticity at 222 nm using Equation 1:(1) %helical content=100×([θ]222/(−39,000(1−2.57/n))) where [θ]222 is the mean residue ellipticity at 222 nm and n is the total number of peptide bonds ([86]).

[3] = molecular target: T2, trypsin (bovine pancreas) (Bos taurus, UniProt P00760); assay: Trypsin degradation of hGH and pegvisomant (HPLC and Western blot); format: in vitro ADME; conditions: 4 μg/ml trypsin in digestion buffer pH 7.8, 37 °C, up to 8 h, 25 μg/ml protein
T2 construct: purchased Sigma-Aldrich; host or cells: bovine pancreas
T2 sequence (P00760 24-246): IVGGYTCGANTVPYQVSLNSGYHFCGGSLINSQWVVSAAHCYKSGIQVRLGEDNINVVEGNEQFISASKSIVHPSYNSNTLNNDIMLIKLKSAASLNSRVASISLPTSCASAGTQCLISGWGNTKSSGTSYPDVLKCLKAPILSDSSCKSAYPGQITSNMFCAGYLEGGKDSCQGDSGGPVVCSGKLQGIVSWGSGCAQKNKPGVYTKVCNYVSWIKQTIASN
Procedure: (§1) The samples were then incubated at 95 °C for 5 min before being cooled on ice and stored at −80 °C. […] Following separation, the proteins were transferred to polyvinylidine difluoride membranes and subjected to Western blot analysis (vide infra). The fraction of intact protein was quantified by measuring the integrated density of each band contained within regions of the gel corresponding to “intact” or “degraded” proteins. […] These reactions were allowed to incubate at 37 °C for up to 8 h, with samples removed at selected timepoints for analysis. Following incubation, the samples were either mixed with 5× Laemmli loading buffer and subjected to SDS-PAGE for Western blot analysis (Fig. S5) or directly injected onto a C18 reversed-phase column for analysis by HPLC as described above for the S1H peptide (Fig. S4).

[4] = Stability of hGH and pegvisomant in human serum (Western blot); format: in vitro ADME; conditions: RPMI with 25% (v/v) heat-inactivated human AB serum, 37 °C, 25 μg/ml protein, SDS-PAGE/Western blot densitometry, average of three experiments
Procedure: as §1

Ac-YIPAEQKYSFLQNPQT-NH2 [S1H (K39A)]
inhibition at 0.2 µM [1]: 88.5%

Ac-YIPKAQKYSFLQNPQT-NH2 [S1H (E40A)]
inhibition at 0.2 µM [1]: 33.4%

Ac-YIPKEAKYSFLQNPQT-NH2 [S1H (Q41A)]
% α-helix + TFE [2]: 25.4%
% α-helix - TFE [2]: 8.3%
[θ]222 + TFE (mean residue ellipticity at 222 nm) [2]: -8,400
[θ]222 - TFE (mean residue ellipticity at 222 nm) [2]: -2,700
% pSTAT5 inhibition [1]: reduced inhibitory effects compared with WT S1H
inhibition at 0.2 µM [1]: 37.4%

Ac-YIPKEQAYSFLQNPQT-NH2 [S1H (K42A)]
% α-helix + TFE [2]: 24.4%
% α-helix - TFE [2]: 2.4%
[θ]222 + TFE (mean residue ellipticity at 222 nm) [2]: -8,100
[θ]222 - TFE (mean residue ellipticity at 222 nm) [2]: -800
% pSTAT5 inhibition [1]: reduced inhibitory effects compared with WT S1H
inhibition at 0.2 µM [1]: 51.7%

Ac-YIPKEQKASFLQNPQT-NH2 [S1H (Y43A)]
% α-helix + TFE [2]: 68.8%
% α-helix - TFE [2]: 11.2%
[θ]222 + TFE (mean residue ellipticity at 222 nm) [2]: -22,800
[θ]222 - TFE (mean residue ellipticity at 222 nm) [2]: -3,700
% pSTAT5 inhibition [1]: comparable to WT S1H
inhibition at 0.2 µM [1]: 66.6%

Ac-YIPKEQKYAFLQNPQT-NH2 [S1H (S44A)]
% α-helix + TFE [2]: 63.5%
% α-helix - TFE [2]: 15.7%
[θ]222 + TFE (mean residue ellipticity at 222 nm) [2]: -21,100
[θ]222 - TFE (mean residue ellipticity at 222 nm) [2]: -5,200
% pSTAT5 inhibition [1]: comparable to WT S1H
inhibition at 0.2 µM [1]: 72.3%

Ac-YIPKEQKYSALQNPQT-NH2 [S1H (F45A)]
% α-helix + TFE [2]: 21.4%
% α-helix - TFE [2]: 11.1%
[θ]222 + TFE (mean residue ellipticity at 222 nm) [2]: -7,100
[θ]222 - TFE (mean residue ellipticity at 222 nm) [2]: -3,700
% pSTAT5 inhibition [1]: reduced inhibitory effects compared with WT S1H
inhibition at 0.2 µM [1]: 52.5%

Ac-YIPKEQKYSFAQNPQT-NH2 [S1H (L46A)]
% α-helix - TFE [2]: 7.0%
[θ]222 - TFE (mean residue ellipticity at 222 nm) [2]: -2,300
% pSTAT5 inhibition [1]: comparable to WT S1H
inhibition at 0.2 µM [1]: 75.1%

Ac-YIPKEQKYSFLANPQT-NH2 [S1H (Q47A)]
% α-helix + TFE [2]: 86.3%
% α-helix - TFE [2]: 8.2%
[θ]222 - TFE (mean residue ellipticity at 222 nm) [2]: -2,700
inhibition at 0.2 µM [1]: 30.1%

Ac-YIPKEQKYSFLQAPQT-NH2 [S1H (N48A)]
% α-helix + TFE [2]: 12.2%
% α-helix - TFE [2]: 6.7%
[θ]222 + TFE (mean residue ellipticity at 222 nm) [2]: -4,100
[θ]222 - TFE (mean residue ellipticity at 222 nm) [2]: -2,200
inhibition at 0.2 µM [1]: 89.1%

hGH: recombinant human growth hormone, 191-amino acid peptide hormone (22 kDa)
time to full degradation by trypsin [3]: 8 h
protein remaining intact after 48 h in human serum [4]: > 92%
